{
  "source": "paper PMC7287031",
  "about": "(Pharmacology Research & Perspectives, 2020)",
  "key": {"[1]": {"assay": "Human ADME study: PK of ribociclib and LEQ803 in plasma and urine (validated bioanalytical assay)", "format": "in vivo", "conditions": "for AUC(0-inf) / AUC(0-t) / Cmax / half-life: plasma, po, 600 mg", "description": "Subjects continued to fast for 4 hours after drug administration.\nPlasma aliquots at each time point were subjected to protein precipitation with three volumes of acetonitrile containing 0.1% (v:v) formic acid, followed by dilution and analysis by liquid chromatography‐tandem mass spectrometry in selected reaction monitor‐positive ion mode using heated electrospray ionization as the ionization technique. For urine aliquots, six volumes of acetonitrile containing 0.1% (v:v) formic acid were added, followed by dilution and analysis in the same way as for plasma. Components were separated using a YMC‐Triart C18 (2.0 x 30 mm, 1.9 µm) column (YMC Co. Ltd.). […] Mobile phase A was 0.1% formic acid in H2O while mobile phase B was 0.1% formic acid in ACN:Isopropanol 8:2 v:v."}, "[2]": {"assay": "In vitro plasma protein binding (ultrafiltration), rat", "format": "in vitro ADME", "conditions": "100 and 1000 ng/mL", "description": "(§1) Stock solutions were spiked into plasma to achieve the intended concentrations. After incubation for 1 hour at 37°C under constant gentle agitation, the spiked plasma samples (n = 3) were centrifuged (2000 g, 10 min, 37°C) in pre‐warmed Centrifree devices. Total radioactivity was determined in the ultrafiltrate (Cu, concentration of unbound compound) and in the sample introduced into the reservoir before ultrafiltration (Cp). The unbound (fu) and the bound (fb) fraction in plasma were calculated as follows: fu (%) = Cu/Cp × 100; fb (%) = 100‐Fu (%)."}, "[3]": {"set-up": "method as in earlier work", "conditions": "humans, total of central and peripheral volume; ref 22 (Lu et al, manuscript submitted); cited from earlier work"}, "[4]": {"target": "heat-treated human liver microsomes (Homo sapiens, UniProt P08684)", "sequence (P08684 2-503)": "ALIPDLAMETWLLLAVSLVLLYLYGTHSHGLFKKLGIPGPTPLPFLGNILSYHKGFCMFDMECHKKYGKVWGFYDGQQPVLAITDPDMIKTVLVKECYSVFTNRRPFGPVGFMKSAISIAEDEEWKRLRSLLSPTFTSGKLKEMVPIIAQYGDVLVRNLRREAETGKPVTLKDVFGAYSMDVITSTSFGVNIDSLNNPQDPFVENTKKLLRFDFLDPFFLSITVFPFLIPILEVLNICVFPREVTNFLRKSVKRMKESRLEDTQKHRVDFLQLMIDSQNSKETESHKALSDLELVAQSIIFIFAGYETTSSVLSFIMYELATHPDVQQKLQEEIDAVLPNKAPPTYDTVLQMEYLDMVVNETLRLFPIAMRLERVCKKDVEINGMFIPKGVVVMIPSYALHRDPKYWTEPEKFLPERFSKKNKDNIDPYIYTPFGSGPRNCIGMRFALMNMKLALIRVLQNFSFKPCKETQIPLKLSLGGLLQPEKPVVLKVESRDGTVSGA", "assay": "Enzyme kinetics in heat-treated HLM (FMO inactivation)", "format": "in vitro ADME", "conditions": "human, microsomes", "description": "(§2) In vitro incubations were carried out in 100‐mM potassium phosphate buffer (pH 7.4) and 5‐mM MgCl2 with a total volume of 200 µL. Substrate and either human liver microsomes (HLM, BD Biosciences, mixed gender pool of n = 50) or recombinant human enzymes (BD Biosciences) were added and pre‐incubated for 3 minutes at 37°C. The reaction was started by addition of a fresh solution of NADPH (1 mmol/L final concentration). The samples were incubated at 37°C with agitation of 500 rpm. For incubations with CYP2A6, CYP2C9, CYP2C18, and CYP4A11, the phosphate buffer was replaced by TRIS buffer (100 mmol/L, pH 7.4) and for flavin‐containing monooxygenases (FMOs), a glycine buffer (50 mM, pH 9.5) was used.\n(§3) The enzymatic reaction was stopped and the protein was precipitated by addition of an equal volume of methanol. After 30 min at −80°C, the samples were centrifuged at 30'000 x g for 15 min. The supernatant was withdrawn. Aliquots were analyzed by LSC and the supernatant was diluted with water to obtain a final solution containing less than 20% of the organic solvent. For samples of low substrate concentration, supernatants were evaporated to dryness under nitrogen, then re‐suspended in water containing less than 20% of methanol. Samples were analyzed by HPLC combined with radiodetection. […]"}, "[5]": {"system": "heat-treated human liver microsomes (Homo sapiens)", "sequence (P08684 2-503)": "as above", "assay": "Enzyme kinetics in heat-treated HLM (FMO inactivation)", "format": "in vitro ADME", "conditions": "heated vs non-heated control HLM", "description": "as §2, §3"}, "[6]": {"assay": "In vitro plasma protein binding (ultrafiltration), dog", "format": "in vitro ADME", "conditions": "100 and 1000 ng/mL", "description": "as §1"}, "[7]": {"assay": "Integrated estimation of ribociclib elimination pathways in humans", "set-up": "species or system human"}, "CYP3A5": {"target": "T1, CYP3A5 (Homo sapiens, UniProt P20815)", "T1 construct": "purchased BD Biosciences", "T1 sequence (P20815 whole entry)": "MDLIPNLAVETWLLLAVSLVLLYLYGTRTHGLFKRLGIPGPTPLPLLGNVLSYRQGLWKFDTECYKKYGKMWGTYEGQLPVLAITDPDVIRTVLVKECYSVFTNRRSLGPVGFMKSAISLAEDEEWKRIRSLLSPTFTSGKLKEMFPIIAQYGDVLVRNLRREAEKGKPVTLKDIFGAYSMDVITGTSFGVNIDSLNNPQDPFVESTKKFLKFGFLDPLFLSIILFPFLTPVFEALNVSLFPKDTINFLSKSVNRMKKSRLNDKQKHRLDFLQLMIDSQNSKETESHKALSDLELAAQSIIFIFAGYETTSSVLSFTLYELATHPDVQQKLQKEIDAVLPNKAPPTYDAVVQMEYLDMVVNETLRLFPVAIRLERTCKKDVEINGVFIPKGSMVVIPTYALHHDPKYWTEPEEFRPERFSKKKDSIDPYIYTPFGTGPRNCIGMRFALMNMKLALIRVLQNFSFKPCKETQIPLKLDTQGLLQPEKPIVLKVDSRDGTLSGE", "assay": "Enzyme kinetics with recombinant CYP3A5 and scaling to HLM", "format": "in vitro ADME", "description": "as §2, §3"}, "[8]": {"conditions": "human estimate based on rat ADME data"}},
  "note": "Read-outs that look alike come from different tables or passages of the source.",
  "data": [
    {"smiles": "CN(C)C(=O)c1cc2cnc(Nc3ccc(N4CCNCC4)cn3)nc2n1C1CCCC1", "note": "[ribociclib, Ribociclib]", "values": [
      {"measurement": "Ribociclib in urine by validated bioanalytical assay", "setting": "[1]; human", "result": "6.75 % of the dose"},
      {"measurement": "renal clearance lower than non-renal clearance", "setting": "[1]; human", "result": "more than 10 fold"},
      {"measurement": "Tmax", "setting": "[1]; human plasma, bioanalytical assay, single oral 600 mg, N=6, read-out: tmax, median (range)", "result": 1.75, "unit": "h"},
      {"measurement": "AUC(0-inf)", "setting": "[1]; human, human plasma, bioanalytical assay, single oral 600 mg, N=6, read-out: AUCinf, arithmetic mean (CV %)", "result": 8700, "unit": "ng·h/mL"},
      {"measurement": "AUC(0-inf)", "setting": "[1]; human, human plasma, bioanalytical assay, single oral 600 mg, N=6, read-out: AUCinf, median", "result": 8880, "unit": "ng·h/mL"},
      {"measurement": "AUC(0-t)", "setting": "[1]; human, human plasma, bioanalytical assay, single oral 600 mg, N=6, read-out: AUClast, arithmetic mean (CV %)", "result": 8600, "unit": "ng·h/mL"},
      {"measurement": "AUC(0-t)", "setting": "[1]; human, human plasma, bioanalytical assay, single oral 600 mg, N=6, read-out: AUClast, median", "result": 8780, "unit": "ng·h/mL"},
      {"measurement": "Cmax", "setting": "[1]; human, human plasma, bioanalytical assay, single oral 600 mg, N=6, read-out: Cmax, arithmetic mean (CV %)", "result": 507, "unit": "ng/mL"},
      {"measurement": "Cmax", "setting": "[1]; human, human plasma, bioanalytical assay, single oral 600 mg, N=6, read-out: Cmax, median", "result": 518, "unit": "ng/mL"},
      {"measurement": "half-life", "setting": "[1]; human, human plasma, bioanalytical assay, single oral 600 mg, N=6, read-out: t½, arithmetic mean (CV %) (converted)", "result": 54.7, "unit": "h"},
      {"measurement": "half-life", "setting": "[1]; human, human plasma, bioanalytical assay, single oral 600 mg, N=6, read-out: t½, median (converted)", "result": 49.4, "unit": "h"},
      {"measurement": "CL/F, median", "setting": "[1]; human, single oral 600 mg", "result": 70.2, "unit": "L/h"},
      {"measurement": "CL renal", "setting": "[1]; male, plasma and urine, human, single oral 600 mg, read-out: renal clearance, median (converted)", "result": 92.5, "unit": "mL/min"},
      {"measurement": "fraction unbound at 1 h", "setting": "[2]", "result": "0.2 ± 0.01"},
      {"measurement": "apparent volume of distribution at steady state", "setting": "[3]", "result": 1090, "unit": "L"},
      {"measurement": "Ki at 0.25 h", "setting": "[4]", "result": 328, "unit": "µM"},
      {"measurement": "FMO metabolism as share of intrinsic clearance in HLM", "setting": "[5]", "result": "about 15%"},
      {"measurement": "fraction unbound at 1 h", "setting": "[6]", "result": "0.34 ± 0.01"},
      {"measurement": "biliary elimination, share of total", "setting": "[7]; [8]", "result": 1, "unit": "%"},
      {"measurement": "elimination by intestinal excretion/secretion, share of total", "setting": "[7]; [8]", "result": 8, "unit": "%"},
      {"measurement": "elimination by hepatic metabolism, share of total", "setting": "[7]; human, integrated estimate", "result": "approx. 84%"},
      {"measurement": "elimination by renal excretion, share of total", "setting": "[7]; human, integrated estimate", "result": 7, "unit": "%"},
      {"measurement": "fm,CYP", "setting": "CYP3A5; CYP3A5, share of total CYP-mediated metabolism in HLM", "result": 1.2, "unit": "%"},
      {"measurement": "fumic", "setting": "CYP3A5; CYP3A5 incubation", "result": 0.87}
    ]}
  ]
}
